Test results: US8404721B2, “Compositions and methods for treating seizure disorders” (Allergan, Inc., priority 2009, dated 2013)

Tested on: Male C57B/6 mice
Assay: Pentylenetetrazol (PTZ)-induced convulsions in mice
Format: in vivo
Conditions: for Latency to first convulsion: convulsion level 3 or higher; for Number of events Myoclonic: level 3+level 4 events; for Number of events Myoclonic / Number of events Clonic / Number of events Tonic-Clonic: scored 10 minutes; for Number of events Clonic: level 5 events; for Number of events Tonic-Clonic: level 6+level 7 events
Method: Male C57B/6 mice (20-25 g) were administered intraperitoneal Compound A (1 mg/kg), Compound B (1 or 10 mg/kg), Compound C (1 mg/kg), diazepam (0.5 mg/kg), gabapentin (50 mg/kg), or vehicle (ddH 2O) prior to treatment with pentylenetetrazol (PTZ, 50 mg/kg IP). Compounds A, B, C, and gabapentin were administered 60 minutes before, and diazepam or vehicle was administered 30 minutes before PTZ. Immediately following PTZ injection, mice were individually placed in an observation cage and the latency to onset of first convulsion (level 3 or higher; Table 2) was recorded, as well as the number of each type of convulsion (see Table 2 for scoring method modified from the scale used by Rizwan et al, Pol. J. Pharmacol., 55(6):965-71 (2003)).
Level I and 2 behaviors were not considered convulsions, but were scored to keep track of any possible sedative or abnormal effect following drug treatment.
Data are expressed as the number of myoclonic convulsions (level 3+level 4 events), number of clonic convulsions (level 5 events), and number of tonic-clonic events (level 6+level 7 events; Table 3-1), as well as the latency to first convulsion onset (in seconds). The sum of each convulsion type/mouse (myclonic, clonic, or clonic-tonic) was entered into GraphPad Prism and analyzed by One-Way ANOVA with post-hoc Dunnett's Multiple Comparisons Tests relative to vehicle+PTZ. Overall significance was established when P<0.0125 (corrected for number of groups). Post-hoc comparisons were considered significant when P<0.05.

[1] = 1 mg/kg intraperitoneal, 60 minutes before PTZ 50 mg/kg IP
[2] = 10 mg/kg intraperitoneal, 60 minutes before PTZ 50 mg/kg IP
[3] = 0.5 mg/kg intraperitoneal, 30 minutes before PTZ 50 mg/kg IP
[4] = 50 mg/kg intraperitoneal, 60 minutes before PTZ 50 mg/kg IP

Structure (SMILES)	Latency to first convulsion [1] [s]	Number of events Myoclonic [1]	Number of events Clonic [1]	Number of events Tonic-Clonic [1]	further results
NC(C(=O)N1CCCC1)C(O)c1ccncc1 (racemic) [Compound A]	342.8 ± 76.7	1.40 ± 0.4	0.2 ± 0.1	0.5 ± 0.2	
N[C@@H](C(=O)N1CCCC1)[C@@H](O)c1ccncc1 [Compound B]	208.8 ± 84.29	0.83 ± 0.31	0.83 ± 0.17	0.0 ± 0.0	Latency to first convulsion [2]: 308.9 ± 92.55 s; Number of events Myoclonic [2]: 0.17 ± 0.17; Number of events Clonic [2]: 0.50 ± 0.22; Number of events Tonic-Clonic [2]: 0.33 ± 0.21
N[C@@H](C(=O)N1CCCC1)[C@@H](O)c1ccc(F)cc1 [Compound C]	367.1 ± 78.30	2.00 ± 1.02	0.10 ± 0.10	0.0 ± 0.0	
CN1C(=O)CN=C(c2ccccc2)c2cc(Cl)ccc21 [Diazepam, reference compound]					Latency to first convulsion [3]: 546.4 ± 53.60 s; Number of events Myoclonic [3]: 0.0 ± 0.0; Number of events Clonic [3]: 0.0 ± 0.0; Number of events Tonic-Clonic [3]: 0.60 ± 0.60
NCC1(CC(=O)O)CCCCC1 [Gabapentin, reference compound]					Latency to first convulsion [4]: 194.8 ± 30.41 s; Number of events Myoclonic [4]: 1.20 ± 0.55; Number of events Clonic [4]: 0.90 ± 0.18; Number of events Tonic-Clonic [4]: 0.20 ± 0.13
